Experimental data reported in patent US10568976B2, “3,6,9, 15-tetraaza-bicyclo [9.3.1 ]pentadeca-1(14), 11(15), 12-triene based compounds and their application as ligands of essential metal ion based MRI and 52MN based PET contrast agents” (DEBRECENI EGYETEM, priority 2015, dated 2020).

Assays:
[1] = literature value, 'under the same conditions'; cited from earlier work
[2] = cited from earlier work
[3] = Protonation constants of the ligands (equilibrium study); type: physicochemical; conditions: 25° C., 0.15M NaCl
Procedure: (§1) During the physico-chemical tests of tPC2AM^Pyp and tPC2AM^Pro compounds synthesized according to Example 1 and 2, their protonation constant, as well as equilibrium behaviour and kinetic inertism of their Mn(II) complexes was studied in detail, and the characteristic relaxivity values of the complexes were determined in the presence and absence of HSA (Human Serum Albumin), at 25 and 37° C. and physiological pH. All studies were performed in the presence of 0.15 M NaCl, the same concentration as that of the electrolyte under physiological conditions.
(§2) The results of equilibrium study are summarized in Table 1, in addition to the protonation constants, total basicity of ligands and stability constants of their Mn(II) complexes, the pMn value calculated for complexes are also represented in the table.

[4] = Stability constants of Mn(II) complexes and calculated pMn (equilibrium study); type: physicochemical; conditions: 25° C., 0.15M NaCl; for pMn: calculated from equilibrium constants at pH = 7.4 and cMn = cL = 10^−5 M
Procedure: as §1, §2
Based on the pMn values represented in Table 1 (calculated using the equilibrium constants at pH=7.4 and cMn=cL=10^−5 M), it can be concluded that the studied Mn(II) complexes are formed in 100% at physiological pH, which is an essential aspect of the practical use.

Row | logK1 (protonation constant) [3] | logK2 (protonation constant) [3] | logK3 (protonation constant) [3] | logK4 (protonation constant) [3] | ΣlogKi^H (total basicity) [3] | logKMnL (stability constant of Mn(II) complex) [4] | pMn [4] | SMILES | r1 relaxivity [1] [mM⁻¹ s⁻¹] | Gd(III) ion released, calculated on the basis of experiments at 25° C. ([2]; 25° C.) [%] | Gd(III) ion released during in vivo dissociation ([2]; 37° C.) [%]
1 |  |  |  |  |  |  |  | CNC[C@H](O)[C@@H](O)[C@H](O)[C@H](O)CO.O=C([O-])CN1CCN(CC(=O)[O-])CCN(CC(=O)O)CCN(CC(=O)[O-])CC1.[Gd+3] [DOTAREM] | 3.83 |  | 
2 |  |  |  |  |  |  |  | CNC[C@H](O)[C@@H](O)[C@H](O)[C@H](O)CO.CNC[C@H](O)[C@@H](O)[C@H](O)[C@H](O)CO.O=C([O-])CN(CCN(CC(=O)[O-])CC(=O)O)CCN(CC(=O)[O-])CC(=O)O.[Gd+3] [MAGNEVIST] | 4.02 | 0.5 | 2.2
3 | 9.80(2) | 7.96(4) | 3.65(5) | 2.26(4) | 23.67 | 13.77(3) | 7.85 | O=C(O)C1CCCN1C(=O)CN1CCNCCN(CC(=O)N2CCCC2C(=O)O)Cc2cccc(n2)C1 (stereo not shown) [tPC2AM^Pro] |  |  | 
4 | 11.31(1) | 3.94(3) |  |  | 15.26 | 13.09(2) | 7.09 | O=C(CN1CCNCCN(CC(=O)N2CCCCC2)Cc2cccc(n2)C1)N1CCCCC1 [tPC2AM^Pyp] |  |  | 
